The source of these data is patent US12673925B2, “Compounds and compositions for eye treatments” (Avedro, Inc., priority 2018, dated 2026).

The test system of the experiment is cornea of porcine whole globes. The experiment in a line: Porcine eye corneal flattening assay. The settings on record: de-epithelialized porcine cornea; 0.11% w/v in saline; UVA 4 mm circle, 365 nm, 30 mW/cm^2, pulsed, 16.2 min, 15 J, 90%+ oxygen, 37.0° C. As to the method:
Protocol 1 (For Examples 8, 9, 10, 17, 18, 19, 20, 28, and 29): Porcine whole globes in saline at 4° C. were warmed to room temperature. […] The eye holders were then positioned inside an enclosed chamber that allows for the control of atmosphere, temperature and humidity (typically a water bath at 37.0° C.). IOP is maintained at a constant pressure by the insertion of a blood bank buffered saline line from an IV bag at a standard height inserted into each eye via a syringe needle. 5% Dextran T500 in blood bank buffered saline is dropped onto the surface of the cornea of each eye every 90 sec for 2 hours to allow the eyes to stabilize. […] The test eye is then orientated in a vertical position and the pre-treatment surface keratometry of the cornea measured using a Pentacam® HR device fine cornea 100 scan. […] After a further 1.5 hours during which the 5% dextran drops are resumed the eye is orientated back to the vertical position and the post-treatment surface keratometry of the cornea measured using a Pentacam® HR device fine cornea 100 scan as before. The difference map between the pre and post treatment corneal images is obtained and the overall change in keratometry (Km) of the central 3 mm zone recorded as a change in diopters. […]

Turning to `Cc1cc2nc(-c3nnnn3C)c(=O)n(C[C@H](O)[C@H](O)[C@H](O)CO)c2cc1C` [Compound 40], the “Refractive Change (D)” value is −2.5 D.
